Data set [1] is described as follows: Stability of conjugates in Simulated Intestinal Fluid (SIF). It is filed as in vitro ADME. The conditions noted are these: simulated intestinal fluid pH 6.7 with pancreatin, 1 μM, 37° C. Here is the method:
Assay 2. Stability of conjugates in Simulated Intestinal Fluid (SIF). This assay was used to assess the stability of a conjugate in a small intestine. Phosphate buffer was prepared by dissolving 0.42 g of sodium hydroxide pellets and 3.95 g of monobasic sodium phosphate monohydrate and 6.19 g of sodium chloride in ultrapure water (MilliQ®, Millipore Sigma, Darmstadt, Germany). The pH was adjusted to 6.7 using aq. HCl and aq. NaOH, as necessary, and the solution was diluted with ultrapure water to produce 1 L of the pH 6.7 buffer. 112 mg FaSSIF powder (Biorelevant™, London, UK) was dissolved in 50 mL of the pH 6.7 buffer. 2 to 3 mL of the resulting solution were then added to 500 mg pancreatin (Millipore Sigma, Darmstadt, Germany). The resulting mixture was agitated by finger tapping the vessel containing the mixture until milky suspension formed. At this time, the remainder of the 50 mL FaSSiF/pH 6.7 buffer solution was added. The resulting suspension was flipped upside down 10 times to produce SIF, which was used fresh. Test compounds were dissolved in DMSO stock to 1 mM. An aliquot of the DMSO stock solution was removed and diluted in the SIF media in 15 mL falcon tubes to produce a mixture with a tested compound concentration of 1 μM. A 1 mL aliquot was immediately removed and diluted once with 1 volume of acetonitrile for T0 timepoint. The mixture was sealed and agitated at 37° C. in an incubator. Aliquots (1 mL) were removed at regular intervals and immediately quenched by the addition of 1 volume of acetonitrile. The resulting samples were analyzed by LC/MS to determine degradation rates

A short description of data set [2]: In vitro Colonic Material Stability Assay. It is filed as in vitro ADME. The note with it: for Assay 3 (% Remaining at 24 h): colonic material slurry, anaerobic, 1 or 10 μM. On the procedure: Assay 3 In vitro Colonic Material Stability Assay. This assay was used to assess the stability of an acylated active agent in a large intestine. All experiments were performed in an anaerobic chamber containing 90% nitrogen, 5% hydrogen and 5% carbon dioxide. Colonic material was resuspended as a slurry (15% w/v final concentration) in pre-reduced, anaerobically sterilized dilution blanks (Anaerobe Systems AS-908). The colonic material was then inoculated into 96 well plates containing YCFAC media (Anaerobe Systems AS-680) or other suitable media (6.7 μL slurry into 1 mL total media). Compounds or groups of compounds were added to each individual well to reach a final analyte concentration of 1 or 10 μM, and the material was mixed by pipetting. Sample was removed after set timepoints (0, 120, 240, 480, 1440, 2880 minutes after initiation of the assay), quenched with acetonitrile containing internal standard, and analyzed by LC/MS.

Another data set has as its system E. coli BL21(DE3). The data set can be described thus: Cell-based assay with ClbP with LCMS, ClbP negative strain. The conditions noted are these: 10 μM compound, 37° C., 20 h. On the procedure:
(§1) This example is representative of the methods described in Example 97. ClbP was tested for its ability to activate compounds. […] Each of these three strains was struck out onto an appropriate solid media such as LB agar or BHI agar. The bacteria were then grown aerobically overnight at 37° C.
(§2) A single colony was isolated from the plate and inoculated into 10 mL LB. The liquid cultures were grown overnight aerobically at 37° C. with rocking on a nutator.
(§3) The saturated E. coli cultures were transferred into a biosafety cabinet. 5 μL of each culture was inoculated into fresh LB broth (200 μL total, 1:40 (v/v) dilution of the overnight culture), and the tested compound was added to a final concentration of 10 μM. To establish the native stability of the compound in media alone, the compound was also added to uninoculated media at a final concentration of 10 μM. Each compound was tested in duplicate with each strain or the media-alone incubation. The plate was sealed and incubated aerobically on a nutator at 37° C. for 20 h.
(§4) After 20 h, the reactions were stopped by addition of 200 μL acetonitrile. The contents of each well were mixed, and then the plate was centrifuged (4,000 rpm, 10 min). The plate was diluted serially to a final dilution of 1:100 first with Acetonitrile (10× dilution) and then with (4:1) Mobile Phase A-20 mM ammonium formate+water:Mobile Phase B-Isopropanol:Methanol:Water (4:4:2)+20 mM ammonium formate (10× dilution).
(§5) The amount of each remaining parent compound in each incubation was quantified by LC-MS analysis, with multiple-reaction monitoring targeting transitions specific to each parent compound.
(§6) The amount of compound present in the media-alone condition was normalized to 100%. The amount of parent compound present in the reaction with the ClbP-encoding E. coli (E. coli CFT073 ATCC 700928 and/or E. coli Nissle 1917) was compared to the amount present in the media-alone and expressed as a percent. Likewise, the amount of parent compound present in the reaction with the negative control E. coli BL21(DE3) was compared to the amount present in the media-alone and expressed as a percent.
(§7) In an ideal case, the amount of residual starting material in the reaction(s) with ClbP-encoding E. coli was <25% of the amount in the E. coli BL21(DE3) and media-alone conditions. In an acceptable case, the amount of residual starting material in the reaction(s) with ClbP-encoding E. coli was 25-75% of the amount in the E. coli BL21(DE3) and media-alone conditions. In a non-preferred case, the amount of residual starting material in the reaction(s) with ClbP-encoding E. coli was >75% of the amount in the E. coli BL21(DE3) and media-alone conditions.

A short description of data set [3]: Stability of conjugates in Simulated Gastric Fluid (SGF). The conditions noted are these: simulated gastric fluid pH 1.6 with pepsin, 1 μM, 37° C. It is filed as in vitro ADME. On the procedure:
Assay 1. Stability of conjugates in Simulated Gastric Fluid (SGF). This assay was used to assess the stability of a conjugate in a stomach. Medium was prepared by dissolving 2 g of sodium chloride in 0.6 L in ultrapure water (MilliQ®, Millipore Sigma, Darmstadt, Germany). The pH was adjusted to 1.6 with 1N hydrochloric acid, and the volume was then adjusted to 1 L with purified water. 60 mg FaSSIF powder (Biorelevant™, London, UK) were dissolved in 500 mL buffer (above). Pepsin was added (0.1 mg/mL) (Millipore Sigma, Darmstadt, Germany), and the solution was stirred. The resulting SGF media were used fresh for each experiment. Test compounds were dissolved in DMSO stock to 1 mM. An aliquot of the DMSO stock solution was removed and diluted in the SGF Media in 15 mL falcon tubes to generate a total compound concentration of 1 μM. A 1 mL aliquot was immediately removed and diluted once with 1 volume of acetonitrile for T0 timepoint. The mixture was sealed and mixed at 37° C. in an incubator. Aliquots (1 mL) were removed at regular intervals and immediately quenched by the addition of 1 volume of acetonitrile. The resulting samples were analyzed by LC/MS to determine degradation rates in SGF.

The subject of data set [4] is E. coli CFT073 ATCC 700928 and/or E. coli Nissle 1917. The data set is described as follows: Cell-based assay with ClbP with LCMS, ClbP positive strain. The note with it: ClbP-encoding E. coli, 10 μM compound, 37° C., 20 h. On the procedure: as §1, §2, §3, §4, §5, §6, §7

Non-standard residues stand in square brackets, D forms with d. Residues, ends and D or L forms follow the SMILES beside them. *: point of attachment. Butyryl = CCCC(=O)*

Regarding `CCCC(=O)N[C@H](CC(N)=O)C(=O)N[C@@H](C)C(=O)OC` [Example 12, Methyl butyryl-D-asparaginyl-L-alaninate] (Butyryl-[dN]-Ala-OMe), the “Assay 2 (SIF) (% @ Remaining 4 hours)” value in data set [1] is recorded as “C (>75% of the tested compound remaining)”. Moreover, in data set [2], the “Assay 3 (% Remaining at 24 h)” value is “A (<25% of the tested compound remaining)”. In addition, the “Selective delivery to the colon (conclusion from Table 2)” value in data set [2] (from SGF, SIF and colonic material stability) is recorded as “can be selectively delivered to the colon”. For the same molecule, the “% Remaining in ClbP Negative Relative to Media-Only” value in the data set on E. coli BL21(DE3) is reported as “+ (between 25-75% compound remaining in the 20 μM WT ClbP reaction relative to the no-enzyme control)”.
As for `CCCC(=O)N[C@H](CC(N)=O)C(=O)N[C@@H](C)CCC(=O)Oc1ccccc1` [Example 25, Phenyl (S)-4-((R)-4-amino-2-butyramido-4-oxobutanamido)pentanoate], the “Assay 1 (SGF) (% Remaining @ 1 hours)” value in data set [3] is on record as “C (>75% of the tested compound remaining)”. Besides, in data set [2], the “Assay 3 (% Remaining at 24 h)” value is listed as “B (25-75% of the tested compound remaining)”. Moreover, the “% Remaining in ClbP Negative Relative to Media-Only” value with E. coli BL21(DE3) is listed as “− (>75% compound remaining in the 20 μM WT ClbP reaction relative to the no-enzyme control)”. For the same molecule, the “% Remaining in ClbP Positve Relative to Media-Only” value in data set [4] is on record as “+ (between 25-75% compound remaining in the 20 μM WT ClbP reaction relative to the no-enzyme control)”.
Take `CCCCCCCCCCCCCC(=O)N[C@H](CC(N)=O)C(=O)NCCC(C)(C)C(=O)OC` [Example 34, Methyl (R)-4-(4-amino-4-oxo-2-tetradecanamidobutanamido)-2,2-dimethylbutanoate]: the “Assay 1 (SGF) (% Remaining @ 1 hours)” value in data set [3] is “C (>75% of the tested compound remaining)”. The “Assay 3 (% Remaining at 24 h)” value in data set [2] is “C (>75% of the tested compound remaining)”. Besides, the “% Remaining in ClbP Negative Relative to Media-Only” value in the data set on E. coli BL21(DE3) is “− (>75% compound remaining in the 20 μM WT ClbP reaction relative to the no-enzyme control)”. In addition, the “% Remaining in ClbP Positve Relative to Media-Only” value in data set [4] is “+ (between 25-75% compound remaining in the 20 μM WT ClbP reaction relative to the no-enzyme control)”.
As for `CCCCCCCC(=O)N[C@H](CC(N)=O)C(=O)N[C@@H](C)CCC(=O)OC` [Example 42, Methyl (S)-4-((R)-4-amino-2-octanamido-4-oxobutanamido)pentanoate], in data set [2], the “Assay 3 (% Remaining at 24 h)” value is given as “C (>75% of the tested compound remaining)”. The “% Remaining in ClbP Negative Relative to Media-Only” value in the data set with E. coli BL21(DE3) is recorded as “− (>75% compound remaining in the 20 μM WT ClbP reaction relative to the no-enzyme control)”. Further, in data set [4], the “% Remaining in ClbP Positve Relative to Media-Only” value is on record as “− (>75% compound remaining in the 20 μM WT ClbP reaction relative to the no-enzyme control)”.
Regarding `CCCCCCCC(=O)N[C@H](CC(N)=O)C(=O)N[C@@H](C)CNC(=O)OC` [Example 45, Methyl ((S)-2-((R)-4-amino-2-octanamido-4-oxobutanamido)propyl)carbamate], the “Assay 3 (% Remaining at 24 h)” value in data set [2] was “B (25-75% of the tested compound remaining)”. For the same molecule, in the data set on E. coli BL21(DE3), the “% Remaining in ClbP Negative Relative to Media-Only” value is on record as “− (>75% compound remaining in the 20 μM WT ClbP reaction relative to the no-enzyme control)”. In data set [4], the “% Remaining in ClbP Positve Relative to Media-Only” value is “+ (between 25-75% compound remaining in the 20 μM WT ClbP reaction relative to the no-enzyme control)”.
For the molecule `CCCCCCOC(=O)N[C@H](CC(N)=O)C(=O)N[C@@H](C)C(=O)OC` [Example 52, Methyl ((hexyloxy)carbonyl)-D-asparaginyl-L-alaninate], in data set [2], the “Assay 3 (% Remaining at 24 h)” value was “B (25-75% of the tested compound remaining)”. The “% Remaining in ClbP Negative Relative to Media-Only” value in the data set with E. coli BL21(DE3) was “++ (<25% compound remaining in the 20 μM WT ClbP reaction relative to the control)”. In data set [4], the “% Remaining in ClbP Positve Relative to Media-Only” value is on record as “++ (<25% compound remaining in the 20 μM WT ClbP reaction relative to the control)”.
On to `CCCCCCCC(=O)N[C@H](CC(N)=O)C(=O)NCCNC(=O)n1cc(F)c(=O)[nH]c1=O` [Example 55, (R)—N1-(2-(5-fluoro-2,4-dioxo-1,2,3,4-tetrahydropyrimidine-1-carboxamido)ethyl)-2-octanamidosuccinamide], for which, in data set [3], the “Assay 1 (SGF) (% Remaining @ 1 hours)” value was “C (>75% of the tested compound remaining)”. Moreover, in data set [1], the “Assay 2 (SIF) (% @ Remaining 4 hours)” value is “A (<25% of the tested compound remaining)”. Also, the “Assay 3 (% Remaining at 24 h)” value in data set [2] is recorded as “A (<25% of the tested compound remaining)”.
Turning to `CCCCCCCCCCCCOC(=O)N[C@H](CC(N)=O)C(=O)N[C@@H](C)C(=O)OC` [Example 59, Methyl ((dodecyloxy)carbonyl)-D-asparaginyl-L-alaninate], the “Assay 3 (% Remaining at 24 h)” value in data set [2] was “C (>75% of the tested compound remaining)”. Moreover, the “% Remaining in ClbP Negative Relative to Media-Only” value in the data set on E. coli BL21(DE3) is recorded as “++ (<25% compound remaining in the 20 μM WT ClbP reaction relative to the control)”. For the same molecule, the “% Remaining in ClbP Positve Relative to Media-Only” value in data set [4] was “++ (<25% compound remaining in the 20 μM WT ClbP reaction relative to the control)”.
Take `CCCCCCCCCCCCNC(=O)N[C@H](CC(N)=O)C(=O)N[C@@H](C)C(=O)OC` [Example 60, Methyl (dodecylcarbamoyl)-D-asparaginyl-L-alaninate]: the “Assay 3 (% Remaining at 24 h)” value in data set [2] is “C (>75% of the tested compound remaining)”. In the data set with E. coli BL21(DE3), the “% Remaining in ClbP Negative Relative to Media-Only” value is reported as “+ (between 25-75% compound remaining in the 20 μM WT ClbP reaction relative to the no-enzyme control)”. Further, the “% Remaining in ClbP Positve Relative to Media-Only” value in data set [4] is listed as “+ (between 25-75% compound remaining in the 20 μM WT ClbP reaction relative to the no-enzyme control)”.
Regarding `CCCCCCCC(=O)N[C@H](CC(N)=O)C(=O)NCCCC(=O)Oc1ccc2c(C)cc(=O)oc2c1` [Example 67, 4-methyl-2-oxo-2H-chromen-7-yl (R)-4-(4-amino-2-octanamido-4-oxobutanamido)butanoate], the “Assay 1 (SGF) (% Remaining @ 1 hours)” value in data set [3] is reported as “C (>75% of the tested compound remaining)”. Further, the “Assay 2 (SIF) (% @ Remaining 4 hours)” value in data set [1] is recorded as “A (<25% of the tested compound remaining)”.
